Results published in paper PMC4466095 (Bioorganic & medicinal chemistry, 2014).

Tests used:
Assay type in all cases: cell-based
[1] = molecular target: T1, FPR1 (Homo sapiens, UniProt P21462); assay: Ca2+ mobilization in FPR1-transfected HL-60 cells
T1 sequence (P21462 1-350): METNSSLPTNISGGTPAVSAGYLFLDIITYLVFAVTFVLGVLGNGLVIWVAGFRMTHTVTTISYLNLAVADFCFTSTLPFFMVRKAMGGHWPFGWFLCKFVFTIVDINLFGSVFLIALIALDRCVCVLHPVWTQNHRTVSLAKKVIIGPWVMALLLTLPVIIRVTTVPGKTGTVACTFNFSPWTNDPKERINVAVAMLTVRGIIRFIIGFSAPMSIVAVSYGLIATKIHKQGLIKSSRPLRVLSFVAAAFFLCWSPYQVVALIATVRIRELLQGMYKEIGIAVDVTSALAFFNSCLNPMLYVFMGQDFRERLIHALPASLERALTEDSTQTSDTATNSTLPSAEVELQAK

[2] = system: mouse neutrophils; assay: Ca2+ mobilization in mouse neutrophils; conditions: Neutrophil, read-out: EC50, Ca2+ mobilization, Mouse PMN
[3] = molecular target: T2, FPR2 (Homo sapiens, UniProt P25090); assay: Ca2+ mobilization in FPR2-transfected HL-60 cells
T2 sequence (P25090 1-351): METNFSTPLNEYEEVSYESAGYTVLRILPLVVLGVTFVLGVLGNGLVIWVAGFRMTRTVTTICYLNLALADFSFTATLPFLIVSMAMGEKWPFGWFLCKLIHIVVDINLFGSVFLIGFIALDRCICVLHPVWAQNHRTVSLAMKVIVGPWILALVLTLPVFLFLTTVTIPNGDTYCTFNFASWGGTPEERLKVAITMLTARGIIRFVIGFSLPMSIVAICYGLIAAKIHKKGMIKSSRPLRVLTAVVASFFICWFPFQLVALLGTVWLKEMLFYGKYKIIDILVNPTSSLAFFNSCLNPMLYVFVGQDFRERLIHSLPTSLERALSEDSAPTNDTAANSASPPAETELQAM

[4] = system: human neutrophils; assay: Ca2+ mobilization in human neutrophils

Row | Structure (SMILES) | Ca2+ mobilization in FPR1-HL60 cells (in words) [1] | EC50 [2] [nM] | activation of FPR2 in FPR2-HL60 cells and in human neutrophils (in words) [3] | Ca2+ mobilization in human neutrophils (in words) [4] | difference in potency between enantiomers in activation of human neutrophils ([4]; (S)-9a vs (R)-9a) [fold] | Efficacy, Ca2+ mobilization, Human PMN (w/o probenecid) ([4]; without probenecid, normalized to 5 nM fMLF = 100%) [%]
1 | COc1ccc(NC(=O)N[C@@H](Cc2c[nH]c3ccccc23)C(=O)NCC2(c3ccccn3)CCCCC2)cc1 [(S)-9e, (S)-3-(1H-Indol-3-yl)-2-[3-(4-methoxyphenyl)ureido]-N-[[1-(2-pyridinyl)cyclohexyl]methyl]propanamide] | stimulated Ca^2+ mobilization | 2800 ± 640 | – | – | – | –
2 | COc1ccc(NC(=O)N[C@@H](Cc2c[nH]c3ccccc23)C(=O)NCC2(c3ccc(F)cc3)CCCCC2)cc1 [(S)-9f, (S)-N-[[1-(4-Fluorophenyl)cyclohexyl]methyl]-3-(1H-indol-3-yl)-2-[3-(4-methoxyphenyl)ureido]propanamide] | unable to stimulate Ca^2+ mobilization | 2300 ± 350 | active | only in the presence of probenecid | – | –
3 | COc1ccc(NC(=O)N[C@H](Cc2c[nH]c3ccccc23)C(=O)NCC2(c3ccccc3)CCCCC2)cc1 [(R)-9c, (R)-3-(1H-Indol-3-yl)-2-[3-(4-methoxyphenyl)ureido]-N-[(1-phenylcyclohexyl)methyl]propanamide] | unable to stimulate Ca^2+ mobilization | 3800 ± 1300 | – | only in the presence of probenecid | – | –
4 | COc1ccc(NC(=O)N[C@H](Cc2c[nH]c3ccccc23)C(=O)NCC2(c3ccnc(F)c3)CCCCC2)cc1 [(R)-9b] | – | 2300 ± 730 | inactive | not able to induce Ca^2+ mobilization | – | –
5 | COc1ccc(NC(=O)N[C@H](Cc2c[nH]c3ccccc23)C(=O)NCC2(c3cccnc3)CCCCC2)cc1 [(R)-9d, (R)-3-(1H-Indol-3-yl)-2-[3-(4-methoxyphenyl)ureido]-N-[[1-(3-pyridinyl)cyclohexyl]methyl]propanamide] | – | 2100 ± 580 | – | not able to induce Ca^2+ mobilization | – | –
6 | COc1ccc(NC(=O)N[C@H](Cc2c[nH]c3ccccc23)C(=O)NCC2(c3ccccn3)CCCCC2)cc1 [(R)-9e, (R)-3-(1H-Indol-3-yl)-2-[3-(4-methoxyphenyl)ureido]-N-[[1-(2-pyridinyl)cyclohexyl]methyl]propanamide] | – | 1000 ± 270 | – | – | – | –
7 | COc1ccc(NC(=O)N[C@H](Cc2c[nH]c3ccccc23)C(=O)NCC2(c3ccc(F)cc3)CCCCC2)cc1 [(R)-9f, (R)-N-[[1-(4-Fluorophenyl)cyclohexyl]methyl]-3-(1H-indol-3-yl)-2-[3-(4-methoxyphenyl)ureido]propanamide] | – | 2500 ± 420 | inactive | not able to induce Ca^2+ mobilization | – | –
8 | COc1ccc(NC(=O)N[C@@H](Cc2c[nH]c3ccccc23)C(=O)NCC2(c3ccnc(F)c3)CCCCC2)cc1 [(S)-9b] | unable to stimulate Ca^2+ mobilization | 1700 ± 440 | active | – | – | –
9 | COc1ccc(NC(=O)N[C@@H](Cc2c[nH]c3ccccc23)C(=O)NCC2(c3ccc(OC)cn3)CCCCC2)cc1 [(S)-9a, (S )-3-(1H-indol-3-yl)-2-[3-(4-methoxyphenyl)ureido]-N -[[1-(5-methoxy-2-pyridinyl)cyclohexyl]methyl]propanamide] | stimulated Ca^2+ mobilization | 240 ± 70 | – | – | > 14 | 100
10 | COc1ccc(NC(=O)N[C@H](Cc2c[nH]c3ccccc23)C(=O)NCC2(c3ccc(OC)cn3)CCCCC2)cc1 [(R)-9a, (R)-3-(1H-Indol-3-yl)-2-[3-(4-methoxyphenyl)ureido]-N-[[1-(5-methoxy-2-pyridinyl)cyclohexyl]methyl]propanamide] | – | 4900 ± 1400 | – | – | – | –
11 | COc1ccc(NC(=O)N[C@@H](Cc2c[nH]c3ccccc23)C(=O)NCC2(c3ccccc3)CCCCC2)cc1 [(S)-9c, (S)-3-(1H-Indol-3-yl)-2-[3-(4-methoxyphenyl)ureido]-N-[(1-phenylcyclohexyl)methyl]propanamide] | – | 2500 ± 610 | – | not able to induce Ca^2+ mobilization | – | –
12 | COc1ccc(NC(=O)N[C@@H](Cc2c[nH]c3ccccc23)C(=O)NCC2(c3cccnc3)CCCCC2)cc1 [(S)-9d, (S)-3-(1H-Indol-3-yl)-2-[3-(4-methoxyphenyl)ureido]-N-[[1-(3-pyridinyl)cyclohexyl]methyl]propanamide] | unable to stimulate Ca^2+ mobilization | 3900 ± 1500 | able to activate FPR2 | – | – | –
